Laboratory results reported in patent publication US4298529A, “Alkoxyimino dioxy butyric acid derivatives” (Fujisawa Pharmaceutical Co., Ltd., priority 1978, dated 1981).
≈ marks a conversion by molar mass, not a printed value. Where two headings read alike, the source gives them in different places.

Key:
[1] = tested on: Serratia Marcescens 58; test: Protecting effect against experimental infections in mice; format: in vivo; conditions: sc, 96 h, ICR mice, i.p. challenge 1.2 × 10^7 cells/mouse, s.c. two divisional doses at 1 hr. and 3 hrs. after infection
Method: (§1) Male ICR strain mice aged 4 weeks, each weighing 18.5-21.5 g. were used in groups of 10 mice. The test bacteria were cultured overnight at 37° C. on Trypticase-soy agar and then suspended in 5% mucin to obtain the suspension corresponding to each challenge cells. Mice were inoculated intraperitoneally with 0.5 ml. of the suspension. A solution of test compound was given subcutaneously to the mice in various dosage one hour after the challenge. The ED50 values were calculated from the number of surviving mice for each dosage after four days of observation.
^*3 treated with two divisional doses at 1 hr. and 3 hrs. after […]

[2] = tested on: Proteus rettgeri 24; test: as above; format: in vivo; conditions: Providencia rettgeri, 24, sc, 96 h; ICR mice, i.p. challenge 9.9 × 10^6 cells/mouse, s.c. one hour after challenge, survival after four days
Method: as §1

[3] = tested on: Escherichia coli 54; test: as above; format: in vivo; conditions: Escherichia coli, 54, sc, 96 h; ICR mice, i.p. challenge 1.1 × 10^7 cells/mouse, s.c. one hour after challenge, survival after four days
Method: as §1

[4] = tested on: Klebsiella pneumoniae 39; test: as above; format: in vivo; conditions: Klebsiella pneumoniae, 39, sc, 96 h; ICR mice, i.p. challenge 8 × 10^6 cells/mouse, s.c. one hour after challenge, survival after four days
Method: as §1

[5] = tested on: Proteus rettgeri 24; test: MIC against the infecting strain; format: cell-based; conditions: Providencia rettgeri, 24, 20 h
Method: (§2) In vitro antibacterial activity was determined by the two-fold agar-plate dilution method as described below.
(§3) One loopful of the 100-fold dilution of an overnight culture of each test strain in Trypticase-soy broth was streaked on heart infusion agar (HI-agar) containing graded concentrations of the test compound and incubated at 37° C. for 20 hours. The minimal inhibitory concentration (MIC) was expressed in μg/ml.
(§4) ^*2 100fold dilution of the overnight

[6] = tested on: Escherichia coli 54; test: MIC against the infecting strain; format: cell-based; conditions: Escherichia coli, 54, 20 h
Method: as §2, §3, §4

[7] = tested on: Klebsiella pneumoniae 39; test: MIC against the infecting strain; format: cell-based; conditions: Klebsiella pneumoniae, 39, 20 h
Method: as §2, §3, §4

[8] = tested on: Serratia Marcescens 58; test: MIC against the infecting strain; format: cell-based; conditions: 20 h
Method: as §2, §3, §4

[9] = Acute toxicity in rats; design: species or system rat (ICL-SD strain); conditions: rat, in vivo, 7 days observation
Method: Ten male and 10 female rats aged 6 weeks (ICL-SD strain) were used per group. Test compound dissolved in distilled water was given subcutaneously and intravenously to the animals. […] The LD50 values were calculated from the number of dead animals by the Litchfield-Wilcoxon method.

[10] = tested on: Staphylococcus aureus 209P JC-1; test: In vitro antibacterial activity, two-fold agar-plate dilution method; format: cell-based; conditions: HI-agar, 37° C., 20 hours, 100-fold diluted overnight culture
Method: as §3, with “In vitro antibacterial activity was determined by the two-fold agar-plate dilution method as described below. One” for “One”

[11] = tested on: Pseudomonus aeruginosa NCTC-10490; test: as above; format: cell-based; conditions: HI-agar, 37° C., 20 hours, 100-fold diluted overnight culture
Method: as §3, with “In vitro antibacterial activity was determined by the two-fold agar-plate dilution method as described below. One” for “One”

[12] = tested on: Proteus vulgaris IAM-1025; test: as above; format: cell-based; conditions: IAM1025, HI-agar, 37° C., 20 hours, 100-fold diluted overnight culture
Method: as §3, with “In vitro antibacterial activity was determined by the two-fold agar-plate dilution method as described below. One” for “One”

[13] = tested on: Proteus mirabilis 18; test: as above; format: cell-based; conditions: HI-agar, 37° C., 20 hours, 100-fold diluted overnight culture
Method: as §3, with “In vitro antibacterial activity was determined by the two-fold agar-plate dilution method as described below. One” for “One”

[14] = tested on: Klebsiella pneumoniae 20; test: as above; format: cell-based; conditions: HI-agar, 37° C., 20 hours, 100-fold diluted overnight culture
Method: as §3, with “In vitro antibacterial activity was determined by the two-fold agar-plate dilution method as described below. One” for “One”

[15] = tested on: Serratia marcescens 35; test: as above; format: cell-based; conditions: HI-agar, 37° C., 20 hours, 100-fold diluted overnight culture
Method: as §3, with “In vitro antibacterial activity was determined by the two-fold agar-plate dilution method as described below. One” for “One”

[16] = tested on: Escherichia coli. NIHJ JC-2; test: as above; format: cell-based; conditions: NIHJJC2, HI-agar, 37° C., 20 hours, 100-fold diluted overnight culture
Method: as §3, with “In vitro antibacterial activity was determined by the two-fold agar-plate dilution method as described below. One” for “One”

[17] = inoculum size 10^0 (overnight culture)
[18] = inoculum size 10^-2 (100fold dilution of the overnight culture)
[19] = inoculum size 10^0 (overnight culture), read-out: MIC

Row | Structure (SMILES) | ED50 [1] [mg/kg] | ED50 [2] [mg/kg] | ED50 [3] [mg/kg] | ED50 [4] [mg/kg] | MIC [5, 17] [µg/mL] | MIC [5, 18] [µg/mL] | MIC [6, 17] [µg/mL] | MIC [6, 18] [µg/mL] | MIC [7, 17] [µg/mL] | MIC [7, 18] [µg/mL] | MIC [8, 19] [µg/mL] | further results
1 | CO/N=C(\C(=O)NC1C(=O)N2C(C(=O)O)=C(COC(C)=O)CSC12)c1csc(N)n1 (stereo not drawn) [Reference, 7[2(2-Amino-4-thiazolyl)-2-methoxyiminoacetamido] cephalospolanic acid (syn isomer), reference compound] | 31.4 | 1.17 | 2.8 | 0.995 | 50 (≈ 110 µM) | 0.1 (≈ 0.22 µM) | 3.13 (≈ 6.87 µM) | 0.1 (≈ 0.22 µM) | 3.13 (≈ 6.87 µM) | 0.05 (≈ 0.11 µM) | 50 (≈ 110 µM) | MIC [8]: 1.56 µg/mL (≈ 3.43 µM)
2 | CO/N=C(\C(=O)NC1C(=O)N2C(C(=O)O)=CCSC12)c1csc(N)n1 (stereo not drawn) [Compound 1, 7-[2-(2-aminothiazol-4-yl)-2-methoxyiminoacetamido]-3-cephem-4-carboxylic acid (syn isomer)] | 3.56 | 0.39 | 0.95 | < 0.98 | 1.56 (≈ 4.07 µM) | ≤ 0.025 | 0.78 (≈ 2.03 µM) | 0.05 (≈ 0.13 µM) | 0.39 (≈ 1.02 µM) | ≤ 0.025 | 25 (≈ 65.2 µM) | LD50 at 168 h ([9]; iv, female, i.v., read-out: LD50 i.v.): > 8000 mg/kg; LD50 at 168 h ([9]; iv, male, i.v., read-out: LD50 i.v.): ~8000 mg/kg; LD50 at 168 h ([9]; sc, female, s.c., read-out: LD50 s.c.): > 8000 mg/kg; LD50 at 168 h ([9]; sc, male, s.c., read-out: LD50 s.c.): > 8000 mg/kg; MIC [10]: 6.25 µg/mL (≈ 16.3 µM); MIC [11]: 0.39 µg/mL (≈ 1.02 µM); MIC [12]: ≤ 0.025 µg/mL; MIC [13]: ≤ 0.025 µg/mL; MIC [14]: ≤ 0.025 µg/mL; MIC [15]: 1.56 µg/mL (≈ 4.07 µM); MIC [16]: ≤ 0.025 µg/mL; MIC ([8]; inoculum size 10^-2 (100fold dilution of the overnight culture), read-out: MIC): 0.39 µg/mL (≈ 1.02 µM)
